What follows are molecules tested on HIV strain containing the Y181C mutation (assay: Spread assay, Y181C mutant strain). Details: Human immunodeficiency virus 1; spread assay, 10% FBS, Y181C mutant strain; read-out: CIC95.
Format: cell-based
Experimental: Assays for the inhibition of acute HIV-1 infection of T-lymphoid cells (alternatively referred to herein as the “spread assay”) were conducted in accordance with Vacca, J. P. et al., Proc. Natl. Acad. Sci. USA 1994, 91: 4096. The assays (using 10% FBS) tested for inhibition of wild type HIV-1 and of HIV strains containing the Y181C or K103N mutation. […] (Note that the compound of Example 6 was tested only up to a 833 nM concentration and the CIC95 value was determined to be >833 nM. The compound of Example 78 was not tested in the Y1818C assay.) The compounds of Examples 1 to 119 (including Examples 70A and 70B) had CIC95 values of less than 1000 nanomolar in the assay employing the K103N mutant strain. In an analogous assay employing a mutant strain containing both the K103N and Y181C mutations, the compounds of Examples 70A, 70B and 78-115 had CIC95 values of less than 1000 nanomolar.

| Compound | IC95 |
| --- | --- |
| Cc1c(C(=O)N(C)Cc2ccc(Cl)cc2F)[nH]c(C(N)=O)c1S(=O)(=O)c1cc(Cl)cc(Cl)c1 [Example 35, N-(4-chloro-2-fluorobenzyl)-N,3-dimethyl-4-(3,5-dichlorophenylsulfonyl)-1H-pyrrole-2,5-dicarboxamide] | < 8 µM |
| COc1cccc(CN(C)C(=O)c2[nH]c(C(N)=O)c(S(=O)(=O)c3ccccc3)c2C)c1 [Example 36, N-(3-methoxyobenzyl)-N,3-dimethyl-4-(phenylsulfonyl)-1H-pyrrole-2,5-dicarboxamide] | < 8 µM |
| Cc1c(C(=O)N(C)Cc2ccsc2)[nH]c(C(N)=O)c1S(=O)(=O)c1ccccc1 [Example 38, N,3-dimethyl-4-(phenylsulfonyl)-N-(3-thienylmethyl)-1H-pyrrole-2,5-dicarboxamide] | < 8 µM |
| Cc1c(C(=O)N(C)Cc2ccncc2Cl)[nH]c(C(N)=O)c1S(=O)(=O)c1ccccc1 [Example 39, N-[(3-chloro-4-pyridinyl)methyl]-N,3-dimethyl-4-(phenylsulfonyl)-1H-pyrrole-2,5-dicarboxamide] | < 8 µM |
| Cc1cc(C)cc(S(=O)(=O)c2c(C(N)=O)[nH]c(C(=O)N(C)Cc3ccc4ncccc4c3)c2C)c1 [Example 40, 4-[(3,5-Dimethylphenyl)sulfonyl]-N,3-dimethyl-N-(6-quinolinylmethyl)-1H-pyrrole-2,5-dicarboxamide] | < 8 µM |
| Cc1c(C(=O)N(C)Cc2cc3cccnc3cc2Cl)[nH]c(C(N)=O)c1S(=O)(=O)c1ccccc1 [Example 41, N-[(7-Chloro-6-quinolinyl)methyl]-N,3-dimethyl-4-(phenylsulfonyl)-1H-pyrrole-2,5-dicarboxamide] | < 8 µM |
| Cc1c(C(=O)N(C)Cc2ccc3ncccc3c2Cl)[nH]c(C(N)=O)c1S(=O)(=O)c1ccccc1 [Example 42, N-[(5-Chloro-6-quinolinyl)methyl]-N,3-dimethyl-4-(phenylsulfonyl)-1H-pyrrole-2,5-dicarboxamide] | < 8 µM |
| Cc1c(C(=O)N(C)Cc2ccc3ncccc3c2)[nH]c(C(N)=O)c1S(=O)(=O)c1ccccc1 [Example 43] | < 8 µM |
| Cc1cccc(S(=O)(=O)c2c(C(N)=O)[nH]c(C(=O)N(C)Cc3ccc4ncccc4c3)c2C)c1 [Example 44] | < 8 µM |
| Cc1c(C(=O)N(C)Cc2ccc3ncccc3c2)[nH]c(C(N)=O)c1S(=O)(=O)c1cccc(F)c1 [Example 45] | < 8 µM |
| Cc1c(C(=O)N(C)Cc2ccc3ncccc3c2)[nH]c(C(N)=O)c1S(=O)(=O)c1cccc(C(F)(F)F)c1 [Example 46, N,3-dimethyl-N-(6-quinolinylmethyl)-4-{[3-(trifluoromethyl)phenyl]sulfonyl}-1H-pyrrole-2,5-dicarboxamide] | < 8 µM |
| Cc1cc(C)cc(S(=O)(=O)c2c(C(N)=O)[nH]c(C(=O)N(C)Cc3ccc4ncccc4c3Cl)c2C)c1 [Example 47, N-[(5-chloro-6-quinolinyl)methyl]-4-[(3,5-dimethylphenyl)sulfonyl]-N,3-dimethyl-1H-pyrrole-2,5-dicarboxamide] | < 8 µM |
| Cc1cc(C)cc(S(=O)(=O)c2c(C(N)=O)[nH]c(C(=O)N(C)Cc3cc4cccnc4cc3Cl)c2C)c1 [Example 48, N-[(7-chloro-6-quinolinyl)methyl]-4-[(3,5-dimethylphenyl)sulfonyl]-N,3-dimethyl-1H-pyrrole-2,5-dicarboxamide] | < 8 µM |
| Cc1c(C(=O)N(C)Cc2ccc3ncccc3c2Cl)[nH]c(C(N)=O)c1S(=O)(=O)c1cc(F)cc(F)c1 [Example 49, N-[(5-chloro-6-quinolinyl)methyl]-4-[(3,5-difluorophenyl)sulfonyl]-N,3-dimethyl-1H-pyrrole-2,5-dicarboxamide] | < 8 µM |
| Cc1c(C(=O)N(C)Cc2cc3cccnc3cc2Cl)[nH]c(C(N)=O)c1S(=O)(=O)c1cc(F)cc(F)c1 [Example 50, N-[(7-chloro-6-quinolinyl)methyl]-4-[(3,5-difluorophenyl)sulfonyl]-N,3-dimethyl-1H-pyrrole-2,5-dicarboxamide] | < 8 µM |
| Cc1c(C(=O)N(C)Cc2ccc3ncccc3c2)[nH]c(C(N)=O)c1S(=O)(=O)c1cc(F)cc(Cl)c1 [Example 51, 4-[(3-chloro-5-fluorophenyl)sulfonyl]-N,3-dimethyl-N-(6-quinolinylmethyl)-1H-pyrrole-2,5-dicarboxamide] | < 8 µM |
| Cc1c(C(=O)N(C)Cc2ccc3ncccc3c2Cl)[nH]c(C(N)=O)c1S(=O)(=O)c1cc(F)cc(Cl)c1 [Example 52, 4-[(3-chloro-5-fluorophenyl)sulfonyl]-N-[(5-chloro-6-quinolinyl)methyl]-N,3-dimethyl-1H-pyrrole-2,5-dicarboxamide] | < 8 µM |

| Compound | IC95 |
| --- | --- |
| Cc1c(C(=O)N(C)Cc2cc3cccnc3cc2Cl)[nH]c(C(N)=O)c1S(=O)(=O)c1cc(F)cc(Cl)c1 [Example 53, 4-[(3-chloro-5-fluorophenyl)sulfonyl]-N-[(7-chloro-6-quinolinyl)methyl]-N,3-dimethyl-1H-pyrrole-2,5-dicarboxamide] | < 8 µM |
| Cc1c(C(=O)N(C)Cc2ccc3ncccc3c2)[nH]c(C(N)=O)c1S(=O)(=O)c1cc(Cl)cc(Cl)c1 [Example 54, 4-[(3,5-dichlorophenyl)sulfonyl]-N,3-dimethyl-N-(6-quinolinylmethyl)-1H-pyrrole-2,5-dicarboxamide] | < 8 µM |
| Cc1c(C(=O)N(C)Cc2ccc3ncccc3c2Cl)[nH]c(C(N)=O)c1S(=O)(=O)c1cc(Cl)cc(Cl)c1 [Example 55, N-[(5-chloro-6-quinolinyl)methyl]-4-[(3,5-dichlorophenyl)sulfonyl]-N,3-dimethyl-1H-pyrrole-2,5-dicarboxamide] | < 8 µM |
| Cc1c(C(=O)N(C)Cc2cc3cccnc3cc2Cl)[nH]c(C(N)=O)c1S(=O)(=O)c1cc(Cl)cc(Cl)c1 [Example 56, N-[(7-chloro-6-quinolinyl)methyl]-4-[(3,5-dichlorophenyl)sulfonyl]-N,3-dimethyl-1H-pyrrole-2,5-dicarboxamide] | < 8 µM |
| Cc1c(C(=O)N(C)Cc2ccc3ncccc3c2)[nH]c(C(N)=O)c1S(=O)(=O)c1cc(Cl)cc(C#N)c1 [Example 57] | < 8 µM |
| CC(C)c1c(C(=O)N(C)Cc2ccccc2)[nH]c(C(N)=O)c1S(=O)(=O)c1ccccc1 [Example 58, N-Benzyl-3-isopropyl-N-methyl-4-(phenylsulfonyl)-1H-pyrrole-2,5-dicarboxamide] | < 8 µM |
| CCc1c(C(=O)N(C)Cc2ccc(Cl)cc2Cl)[nH]c(C(N)=O)c1S(=O)(=O)c1ccccc1 [Example 59, N-(2,4-dichlorobenzyl)-3-ethyl-N-methyl-4-(phenylsulfonyl)-1H-pyrrole-2,5-dicarboxamide] | < 8 µM |
| CCc1c(C(=O)N(C)Cc2ccc3ncccc3c2)[nH]c(C(N)=O)c1S(=O)(=O)c1ccccc1 [Example 60, 3-ethyl-N-methyl-4-(phenylsulfonyl)-N-(6-quinolinylmethyl)-1H-pyrrole-2,5-dicarboxamide] | < 8 µM |
| CC(C)c1c(C(=O)N(C)Cc2ccccc2F)[nH]c(C(N)=O)c1S(=O)(=O)c1ccccc1 [Example 61, N-(2-fluorobenzyl)-3-isopropyl-N-methyl-4-(phenylsulfonyl)-1H-pyrrole-2,5-dicarboxamide] | < 8 µM |
| CC(C)c1c(C(=O)N(C)Cc2ccc(Cl)cc2F)[nH]c(C(N)=O)c1S(=O)(=O)c1ccccc1 [Example 62, N-(4-chloro-2-fluorobenzyl)-3-isopropyl-N-methyl-4-(phenylsulfonyl)-1H-pyrrole-2,5-dicarboxamide] | < 8 µM |
| CC(C)c1c(C(=O)N(C)Cc2ccc(Cl)cc2Cl)[nH]c(C(N)=O)c1S(=O)(=O)c1ccccc1 [Example 63, N-(2,4-dichlorobenzyl)-3-isopropyl-N-methyl-4-(phenylsulfonyl)-1H-pyrrole-2,5-dicarboxamide] | < 8 µM |
| CC(C)c1c(C(=O)N(C)Cc2ccc3ncccc3c2)[nH]c(C(N)=O)c1S(=O)(=O)c1ccccc1 [Example 64, 3-isopropyl-N-methyl-4-(phenylsulfonyl)-N-(6-quinolinylmethyl)-1H-pyrrole-2,5-dicarboxamide] | < 8 µM |
| CCCc1c(C(=O)N(C)Cc2ccc3ncccc3c2)[nH]c(C(N)=O)c1S(=O)(=O)c1ccccc1 [Example 65, N-methyl-4-(phenylsulfonyl)-3-propyl-N-(6-quinolinylmethyl)-1H-pyrrole-2,5-dicarboxamide] | < 8 µM |
| CCCCc1c(C(=O)N(C)Cc2ccc3ncccc3c2)[nH]c(C(N)=O)c1S(=O)(=O)c1ccccc1 [Example 66, 3-butyl-N-methyl-4-(phenylsulfonyl)-N-(6-quinolinylmethyl)-1H-pyrrole-2,5-dicarboxamide] | < 8 µM |
| CCCCc1c(C(=O)N(C)Cc2ccc3ncccc3c2)[nH]c(C(N)=O)c1S(=O)(=O)c1cccc(C)c1 [Example 67, 3-butyl-N-methyl-4-(3-methylphenylsulfonyl)-N-(6-quinolinylmethyl)-1H-pyrrole-2,5-dicarboxamide] | < 8 µM |
| CCCCc1c(C(=O)N(C)Cc2ccc3ncccc3c2)[nH]c(C(N)=O)c1S(=O)(=O)c1cccc(Cl)c1 [Example 68, 3-butyl-4-[(3-chlorophenyl)sulfonyl]-N-methyl-N-(6-quinolinylmethyl)-1H-pyrrole-2,5-dicarboxamide] | < 8 µM |
| CCCCc1c(C(=O)N(C)Cc2ccc3ncccc3c2)[nH]c(C(N)=O)c1S(=O)(=O)c1cc(C)cc(C)c1 [Example 69, 3-butyl-4-[(3,5-dimethylphenyl)sulfonyl]-N-methyl-N-(6-quinolinylmethyl)-1H-pyrrole-2,5-dicarboxamide] | < 8 µM |

Source: US20100113421A1, “NON-NUCLEOSIDE REVERSE TRANSCRIPTASE INHIBITORS” (priority 2006, published 2010)
